Test results taken from ChEMBL document CHEMBL1201862, “PubChem BioAssay data set” (2004).
Active and inactive are the calls of the source.

Assays:
[1] = antiviral protection against BTV-induced cell death – arbovirus, BSR cells, confirmation (AID 1250); assay type: functional;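 note: protection from viral cytopathic effect measured as cell viability by ATP luminescence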
Large T antigen = Large T antigen (Simian virus 40, UniProt P03070); assay type: functional, Betapolyomavirus macacae;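 note: Confirmatory-stage PubChem screen for compounds that inhibit SV40 T antigen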
[2] = target: T1, Rac GTPase-activating protein 1 (Homo sapiens, UniProt Q9H0H5); assay: blockers of MgcRacGAP-driven Rac1 GTP hydrolysis – biochemical, ADP Hunter fluorescence, primary and confirmatory, confirmation (AID 624330); assay type: functional
T1 sequence (Q9H0H5 whole entry): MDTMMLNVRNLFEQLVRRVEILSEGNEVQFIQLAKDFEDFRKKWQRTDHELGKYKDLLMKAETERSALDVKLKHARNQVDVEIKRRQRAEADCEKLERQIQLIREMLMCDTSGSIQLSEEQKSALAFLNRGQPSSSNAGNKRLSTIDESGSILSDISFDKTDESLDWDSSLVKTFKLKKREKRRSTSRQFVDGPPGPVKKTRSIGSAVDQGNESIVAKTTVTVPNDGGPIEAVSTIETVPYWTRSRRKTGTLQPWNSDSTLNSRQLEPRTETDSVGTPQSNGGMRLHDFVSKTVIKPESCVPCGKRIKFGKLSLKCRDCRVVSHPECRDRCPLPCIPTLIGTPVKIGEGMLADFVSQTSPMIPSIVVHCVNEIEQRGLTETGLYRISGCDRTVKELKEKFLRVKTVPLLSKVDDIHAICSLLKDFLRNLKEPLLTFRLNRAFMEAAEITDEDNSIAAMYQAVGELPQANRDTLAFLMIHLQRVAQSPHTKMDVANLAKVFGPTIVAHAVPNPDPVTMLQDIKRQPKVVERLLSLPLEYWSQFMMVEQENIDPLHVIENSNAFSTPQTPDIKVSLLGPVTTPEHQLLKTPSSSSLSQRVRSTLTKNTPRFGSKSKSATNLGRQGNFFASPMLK

cells = assay type: functional
Protein RecA = target: T2, Protein RecA (Mycobacterium tuberculosis, UniProt P9WHJ3); assay: Fluorescence Cell-Free Homogeneous Dose Retest to Identify Inhibitors of RecA-Intein Splicing Activity. [Related pubchem assays (depositor defined):AID2097, AID2223, AID489010, AID492950]; assay type: functional
T2 sequence (P9WHJ3 whole entry): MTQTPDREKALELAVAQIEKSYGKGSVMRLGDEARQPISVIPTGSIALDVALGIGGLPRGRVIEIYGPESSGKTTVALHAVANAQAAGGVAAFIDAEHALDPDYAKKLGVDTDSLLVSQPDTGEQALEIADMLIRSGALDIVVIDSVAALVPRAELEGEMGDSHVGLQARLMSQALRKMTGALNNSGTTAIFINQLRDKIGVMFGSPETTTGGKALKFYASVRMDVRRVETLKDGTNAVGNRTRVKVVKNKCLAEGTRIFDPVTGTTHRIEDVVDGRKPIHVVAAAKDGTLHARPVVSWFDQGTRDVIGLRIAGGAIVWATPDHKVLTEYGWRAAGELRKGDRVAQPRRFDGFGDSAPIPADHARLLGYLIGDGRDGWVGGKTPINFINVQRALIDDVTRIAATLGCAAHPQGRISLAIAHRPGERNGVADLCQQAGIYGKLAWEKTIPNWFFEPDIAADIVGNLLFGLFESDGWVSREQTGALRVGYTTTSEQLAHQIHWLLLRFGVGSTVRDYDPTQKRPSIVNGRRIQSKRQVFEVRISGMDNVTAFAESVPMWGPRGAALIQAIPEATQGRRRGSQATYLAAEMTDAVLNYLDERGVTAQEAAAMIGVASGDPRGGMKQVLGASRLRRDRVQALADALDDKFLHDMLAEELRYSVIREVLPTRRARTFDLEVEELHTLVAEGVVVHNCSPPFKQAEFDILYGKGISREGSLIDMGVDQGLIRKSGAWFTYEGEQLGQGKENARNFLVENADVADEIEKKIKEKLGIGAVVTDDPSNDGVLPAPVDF

[3] = THP-1 cell cytotoxicity, dose response, cytotoxicity control for non-replicating M. tuberculosis project (AID 489025); assay type: functional
[4] = target: T3, Replicative DNA helicase DnaB (Mycobacterium tuberculosis, UniProt P9WMR3); assay: DnaB intein splicing inhibitors, dose response, biochemical, cell-free fluorescence (AID 449749); assay type: functional
T3 sequence (P9WMR3 whole entry): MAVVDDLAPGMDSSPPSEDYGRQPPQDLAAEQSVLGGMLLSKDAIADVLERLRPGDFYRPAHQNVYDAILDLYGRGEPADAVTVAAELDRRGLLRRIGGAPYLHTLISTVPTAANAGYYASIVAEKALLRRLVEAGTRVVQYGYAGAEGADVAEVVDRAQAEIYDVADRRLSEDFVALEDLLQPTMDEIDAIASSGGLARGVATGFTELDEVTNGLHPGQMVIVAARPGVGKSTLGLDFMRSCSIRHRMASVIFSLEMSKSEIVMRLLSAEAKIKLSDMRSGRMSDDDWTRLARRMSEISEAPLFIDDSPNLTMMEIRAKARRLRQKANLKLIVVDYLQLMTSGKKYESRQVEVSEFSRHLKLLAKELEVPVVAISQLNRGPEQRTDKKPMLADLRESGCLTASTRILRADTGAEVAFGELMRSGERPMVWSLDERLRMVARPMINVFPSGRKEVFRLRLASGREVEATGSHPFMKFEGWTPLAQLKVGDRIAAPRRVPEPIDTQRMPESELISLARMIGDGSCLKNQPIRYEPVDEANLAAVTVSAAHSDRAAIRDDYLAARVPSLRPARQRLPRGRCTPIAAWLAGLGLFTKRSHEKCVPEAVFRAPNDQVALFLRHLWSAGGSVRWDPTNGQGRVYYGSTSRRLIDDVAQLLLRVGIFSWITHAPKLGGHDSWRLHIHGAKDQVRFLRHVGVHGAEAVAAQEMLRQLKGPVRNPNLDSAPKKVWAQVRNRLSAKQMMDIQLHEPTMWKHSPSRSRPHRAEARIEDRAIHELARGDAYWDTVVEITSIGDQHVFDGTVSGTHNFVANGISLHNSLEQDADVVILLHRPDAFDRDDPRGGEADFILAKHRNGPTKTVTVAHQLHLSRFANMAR

Leucine aminopeptidase = target: T4, Leucine aminopeptidase (Plasmodium falciparum 3D7, UniProt Q8IL11); assay: P. falciparum M17LAP inhibitors, primary screen, biochemical, fluorogenic H-Leu-NHMec substrate, 1536-well (AID 1619); assay type: functional
T4 sequence (Q8IL11 whole entry): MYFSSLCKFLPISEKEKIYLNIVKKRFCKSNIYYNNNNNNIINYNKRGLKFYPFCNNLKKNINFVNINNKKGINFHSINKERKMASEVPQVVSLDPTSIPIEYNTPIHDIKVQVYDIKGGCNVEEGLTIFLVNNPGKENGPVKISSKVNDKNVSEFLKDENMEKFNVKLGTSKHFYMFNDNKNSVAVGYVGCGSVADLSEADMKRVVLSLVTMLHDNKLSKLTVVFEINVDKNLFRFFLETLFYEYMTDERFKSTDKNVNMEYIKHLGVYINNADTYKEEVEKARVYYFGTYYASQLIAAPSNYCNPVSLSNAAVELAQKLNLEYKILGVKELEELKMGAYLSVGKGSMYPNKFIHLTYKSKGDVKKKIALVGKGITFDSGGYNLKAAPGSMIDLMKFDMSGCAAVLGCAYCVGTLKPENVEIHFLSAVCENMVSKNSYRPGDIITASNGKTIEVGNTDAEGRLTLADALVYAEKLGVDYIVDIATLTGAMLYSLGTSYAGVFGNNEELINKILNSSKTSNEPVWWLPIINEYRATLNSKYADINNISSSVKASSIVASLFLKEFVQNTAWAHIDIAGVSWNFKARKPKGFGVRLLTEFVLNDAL

Aminopeptidase N = target: T5, Aminopeptidase N (Plasmodium falciparum FcB1/Columbia, UniProt O96935); assay: malaria alanyl aminopeptidase activity blockers – biochemical, fluorogenic H-Leu-NHMec substrate, 1536-well (AID 1445); design: species or system Plasmodium falciparum 3D7, 3D7
T5 sequence (O96935 whole entry): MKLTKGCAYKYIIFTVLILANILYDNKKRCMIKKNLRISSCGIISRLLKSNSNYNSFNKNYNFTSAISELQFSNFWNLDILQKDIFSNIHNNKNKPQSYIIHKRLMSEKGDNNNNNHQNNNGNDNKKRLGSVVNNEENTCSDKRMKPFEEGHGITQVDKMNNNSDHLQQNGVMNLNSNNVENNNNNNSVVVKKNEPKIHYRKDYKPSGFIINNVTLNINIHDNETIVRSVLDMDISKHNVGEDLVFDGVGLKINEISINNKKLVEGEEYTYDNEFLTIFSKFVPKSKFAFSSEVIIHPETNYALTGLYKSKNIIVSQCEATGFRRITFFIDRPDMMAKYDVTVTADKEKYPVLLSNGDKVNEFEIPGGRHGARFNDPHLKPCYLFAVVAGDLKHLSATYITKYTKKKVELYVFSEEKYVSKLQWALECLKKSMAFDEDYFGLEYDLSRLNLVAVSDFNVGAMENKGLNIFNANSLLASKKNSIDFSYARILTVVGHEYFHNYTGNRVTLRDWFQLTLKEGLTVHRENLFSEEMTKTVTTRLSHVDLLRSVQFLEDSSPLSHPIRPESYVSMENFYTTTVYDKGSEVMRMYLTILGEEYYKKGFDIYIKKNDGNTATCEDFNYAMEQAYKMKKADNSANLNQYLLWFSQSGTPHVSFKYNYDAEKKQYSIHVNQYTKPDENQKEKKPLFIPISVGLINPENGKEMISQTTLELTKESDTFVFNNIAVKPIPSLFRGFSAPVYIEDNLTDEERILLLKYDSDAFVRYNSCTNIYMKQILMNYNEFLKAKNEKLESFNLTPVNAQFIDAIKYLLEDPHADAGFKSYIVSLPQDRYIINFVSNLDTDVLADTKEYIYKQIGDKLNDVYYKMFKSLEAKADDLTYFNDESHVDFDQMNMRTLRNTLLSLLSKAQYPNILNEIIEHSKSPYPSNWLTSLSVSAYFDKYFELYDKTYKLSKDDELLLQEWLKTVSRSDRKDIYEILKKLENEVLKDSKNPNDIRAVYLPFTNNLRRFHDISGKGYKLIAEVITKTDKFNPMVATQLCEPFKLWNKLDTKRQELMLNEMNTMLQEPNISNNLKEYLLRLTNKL

[5] = NIH-3T3 fibroblast cytotoxicity, dose response, cytotoxicity control, cell-based, fluorescence, Alamar Blue, secondary assay (AID 2327); assay type: functional;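 note: NIH-3T3 mouse fibroblasts cultured with fluconazole at 8 µg/mL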
[6] = fluconazole-exposed Candida albicans growth modulators – fluorescence, retest, confirmation (AID 2467); assay type: functional, cell-based
Cytochrome P450 1A2 = target: T6, Cytochrome P450 1A2 (Homo sapiens, UniProt P05177);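 note: PubChem cytochrome P450 panel assay, CYP1A2 panel member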
T6 sequence (P05177 whole entry): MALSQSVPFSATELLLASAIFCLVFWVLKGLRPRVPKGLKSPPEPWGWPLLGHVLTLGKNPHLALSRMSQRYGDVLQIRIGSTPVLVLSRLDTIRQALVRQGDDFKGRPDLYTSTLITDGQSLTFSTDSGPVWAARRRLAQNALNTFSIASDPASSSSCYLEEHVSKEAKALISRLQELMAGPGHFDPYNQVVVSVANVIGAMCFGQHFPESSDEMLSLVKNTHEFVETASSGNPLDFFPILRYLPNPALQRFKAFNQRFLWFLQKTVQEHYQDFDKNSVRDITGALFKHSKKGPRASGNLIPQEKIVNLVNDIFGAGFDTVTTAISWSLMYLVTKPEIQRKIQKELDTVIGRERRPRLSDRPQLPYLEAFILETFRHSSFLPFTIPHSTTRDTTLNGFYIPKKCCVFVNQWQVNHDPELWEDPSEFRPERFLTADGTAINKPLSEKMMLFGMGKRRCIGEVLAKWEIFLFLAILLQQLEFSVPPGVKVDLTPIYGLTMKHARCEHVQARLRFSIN

Cytochrome P450 2D6 = Cytochrome P450 2D6 (Homo sapiens, UniProt P10635);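 note: CYP2D6 member of a cytochrome P450 panel assay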
Genome polyprotein = Genome polyprotein (dengue virus type 2, UniProt P29990); assay: flavivirus cap methylation enzyme inhibition – biochemical, confirmation dose response, primary screen (AID 588689); assay type: functional
[7] = target: DNA dC->dU-editing enzyme APOBEC-3A (Homo sapiens, UniProt P31941); assay: Dose Response confirmation of small molecule APOBEC3A DNA Deaminase Inhibitors via a fluorescence-based single-stranded DNA deaminase assay. [Related pubchem assays (depositor defined):AID493011, AID493024]; assay type: functional
Chain of DNA dC->dU-editing enzyme APOBEC-3A (P31941 whole entry): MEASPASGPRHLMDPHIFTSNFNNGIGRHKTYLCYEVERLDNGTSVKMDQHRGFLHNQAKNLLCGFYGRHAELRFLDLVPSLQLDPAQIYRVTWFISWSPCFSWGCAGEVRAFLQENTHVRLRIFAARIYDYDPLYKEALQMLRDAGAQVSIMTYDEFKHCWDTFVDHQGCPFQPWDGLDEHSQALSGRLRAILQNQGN

Chain of Large T antigen (P03070 whole entry): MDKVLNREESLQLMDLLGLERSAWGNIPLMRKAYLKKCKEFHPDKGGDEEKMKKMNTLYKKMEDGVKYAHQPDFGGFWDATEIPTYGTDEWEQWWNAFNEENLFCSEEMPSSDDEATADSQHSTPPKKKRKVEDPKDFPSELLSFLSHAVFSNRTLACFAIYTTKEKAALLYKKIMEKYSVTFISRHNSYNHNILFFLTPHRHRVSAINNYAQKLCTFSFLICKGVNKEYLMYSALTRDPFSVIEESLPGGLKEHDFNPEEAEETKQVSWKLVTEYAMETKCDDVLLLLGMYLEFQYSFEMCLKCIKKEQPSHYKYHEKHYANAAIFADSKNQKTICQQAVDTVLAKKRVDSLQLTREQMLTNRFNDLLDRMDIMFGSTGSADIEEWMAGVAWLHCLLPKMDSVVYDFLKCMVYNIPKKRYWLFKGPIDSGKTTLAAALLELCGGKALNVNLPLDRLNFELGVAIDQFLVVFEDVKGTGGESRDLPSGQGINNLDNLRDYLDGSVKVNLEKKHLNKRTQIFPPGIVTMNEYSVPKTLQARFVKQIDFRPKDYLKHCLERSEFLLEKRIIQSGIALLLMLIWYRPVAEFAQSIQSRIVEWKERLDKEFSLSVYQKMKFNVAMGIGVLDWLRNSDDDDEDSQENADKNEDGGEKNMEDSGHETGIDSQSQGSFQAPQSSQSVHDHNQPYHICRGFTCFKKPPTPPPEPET
Chain of Genome polyprotein (P29990 2492-3391 limits assumed): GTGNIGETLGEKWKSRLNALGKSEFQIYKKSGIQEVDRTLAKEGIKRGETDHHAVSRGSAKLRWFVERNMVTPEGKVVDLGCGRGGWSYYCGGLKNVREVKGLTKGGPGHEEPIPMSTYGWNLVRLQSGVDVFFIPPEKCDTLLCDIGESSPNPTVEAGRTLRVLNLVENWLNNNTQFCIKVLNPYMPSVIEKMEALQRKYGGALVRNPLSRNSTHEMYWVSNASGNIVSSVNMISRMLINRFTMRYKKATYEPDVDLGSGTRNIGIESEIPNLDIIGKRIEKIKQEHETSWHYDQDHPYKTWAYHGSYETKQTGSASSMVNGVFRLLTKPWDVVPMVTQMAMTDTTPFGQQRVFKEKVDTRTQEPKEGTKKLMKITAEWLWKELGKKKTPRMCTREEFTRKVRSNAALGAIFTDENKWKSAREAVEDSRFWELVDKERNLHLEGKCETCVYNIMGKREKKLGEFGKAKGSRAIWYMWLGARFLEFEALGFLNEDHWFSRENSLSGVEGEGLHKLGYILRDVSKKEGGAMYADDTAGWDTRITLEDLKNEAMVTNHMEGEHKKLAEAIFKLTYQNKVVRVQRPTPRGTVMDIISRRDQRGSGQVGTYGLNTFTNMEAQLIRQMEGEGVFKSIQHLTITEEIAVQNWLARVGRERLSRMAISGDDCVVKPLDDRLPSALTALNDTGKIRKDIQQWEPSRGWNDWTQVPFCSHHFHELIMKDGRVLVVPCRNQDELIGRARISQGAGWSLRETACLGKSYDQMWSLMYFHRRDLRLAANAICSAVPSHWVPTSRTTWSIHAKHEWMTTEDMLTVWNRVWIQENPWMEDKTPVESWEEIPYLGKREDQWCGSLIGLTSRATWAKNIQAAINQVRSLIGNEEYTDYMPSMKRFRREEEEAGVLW
Chain of Cytochrome P450 2D6 (P10635 whole entry): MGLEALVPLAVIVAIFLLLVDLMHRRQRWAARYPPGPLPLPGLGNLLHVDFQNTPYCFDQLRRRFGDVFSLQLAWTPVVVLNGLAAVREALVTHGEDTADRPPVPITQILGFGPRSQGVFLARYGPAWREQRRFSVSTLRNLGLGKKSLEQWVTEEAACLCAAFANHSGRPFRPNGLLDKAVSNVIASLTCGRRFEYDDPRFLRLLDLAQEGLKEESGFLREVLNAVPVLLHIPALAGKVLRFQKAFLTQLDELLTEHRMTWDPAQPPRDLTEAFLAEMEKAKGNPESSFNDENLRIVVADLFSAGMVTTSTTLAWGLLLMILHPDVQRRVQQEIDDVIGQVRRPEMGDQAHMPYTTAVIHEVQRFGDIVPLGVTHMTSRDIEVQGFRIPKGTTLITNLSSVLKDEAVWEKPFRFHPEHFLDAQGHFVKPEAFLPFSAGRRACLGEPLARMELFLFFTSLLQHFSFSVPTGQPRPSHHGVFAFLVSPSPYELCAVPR

## CCOC(=O)c1nn(-c2cccc(Cl)c2)c2nc(Nc3ccccc3)cc(=O)n12
[1]
  IC50: 33 µM (active)

## CN(C)c1ccc(NC(=O)CN2C(=O)CN=C(c3ccccc3)c3ccccc32)cc1
Large T antigen
  IC50: 11.9 µM (active)
[2]
  IC50: 72 µM (active)

## COC(=O)c1ccccc1Sc1ncnc2onc(C)c12
cells
  IC50: 10.9 µM (active)
Protein RecA
  EC50: 9.04 µM (active)
[3]
  CC50: > 40 µM (active)
[4]
  AC50: 12.4 µM (active)

## O=C1NC(=O)N(Cc2ccccc2)C(=O)/C1=C/NNC(=O)c1ccccc1O
Leucine aminopeptidase
  IC50: 62.3 µM (active)
Aminopeptidase N
  IC50: 17.3 µM (active)
[1]
  IC50: 97.4 µM (active)

## Cc1nc(N)sc1N=Nc1c(C)n(C)n(-c2ccccc2)c1=O
Large T antigen
  IC50: 17.3 µM (active)

## O=C1NC2(CCC3(CC2)OCCO3)NN1c1ccc(Cl)cc1
[5]
  EC50: > 150 µM (inactive)
[3]
  CC50: > 40 µM (active)
[6]
  EC50: 1.64 µM (active)

## Cc1ccc(C(=O)Nc2sc3c(c2C(=O)O)CCCCC3)o1
[1]
  IC50: 28.4 µM (active)

## COc1cc(/C=C2\C(=O)NC(=O)N(CCc3ccc(F)cc3)C2=O)ccc1O
Leucine aminopeptidase
  IC50: 15.8 µM (active)
Large T antigen
  IC50: 20 µM (active)

## O=C1Nc2ccc(F)cc2C12Nc1ccccc1-c1nnc(SCc3ccccc3F)nc1O2 (stereo not given)
Aminopeptidase N
  IC50: 68.4 µM (active)
Cytochrome P450 1A2
  AC50: 10 µM (inconclusive)
Cytochrome P450 2D6
  AC50: 14.1 µM (inconclusive)
Genome polyprotein
  IC50: 30.8 µM (active)

## CCOC(=O)CC(=O)CSc1nc(O)c2sc(=S)n(-c3ccc(OCC)cc3)c2n1
Leucine aminopeptidase
  IC50: 26.4 µM (active)
[1]
  IC50: 21.6 µM (active)

## CCC(Oc1ccccc1OC)C(=O)Nc1ccc2c(c1)OCCO2 (stereo not given)
[7]
  IC50: 6.09 µM (active)

## COc1cc(/C=N/Nc2ccnc(O)n2)ccc1O
Large T antigen
  IC50: 6.16 µM (active)
